Experimental data from ChEMBL document CHEMBL5505949, “Synthesis and clinical application of small-molecule inhibitors of Janus kinase” (Eur J Med Chem, 2023).

Legend:
[1] = target: Tyrosine-protein kinase JAK2 (Homo sapiens, UniProt O60674, V617F); assay: Inhibition of JAK2 V617F mutant (unknown origin)
[2] = target: T1, Tyrosine-protein kinase JAK2 (Homo sapiens, UniProt O60674); assay: Inhibition of JAK2 (unknown origin)
[3] = target: T1, Tyrosine-protein kinase JAK2; assay: Inhibition of wild type JAK2 (unknown origin)
[4] = target: T2, Tyrosine-protein kinase JAK3 (Homo sapiens, UniProt P52333); assay: Inhibition of JAK3 (unknown origin)
T2 sequence (P52333 whole entry): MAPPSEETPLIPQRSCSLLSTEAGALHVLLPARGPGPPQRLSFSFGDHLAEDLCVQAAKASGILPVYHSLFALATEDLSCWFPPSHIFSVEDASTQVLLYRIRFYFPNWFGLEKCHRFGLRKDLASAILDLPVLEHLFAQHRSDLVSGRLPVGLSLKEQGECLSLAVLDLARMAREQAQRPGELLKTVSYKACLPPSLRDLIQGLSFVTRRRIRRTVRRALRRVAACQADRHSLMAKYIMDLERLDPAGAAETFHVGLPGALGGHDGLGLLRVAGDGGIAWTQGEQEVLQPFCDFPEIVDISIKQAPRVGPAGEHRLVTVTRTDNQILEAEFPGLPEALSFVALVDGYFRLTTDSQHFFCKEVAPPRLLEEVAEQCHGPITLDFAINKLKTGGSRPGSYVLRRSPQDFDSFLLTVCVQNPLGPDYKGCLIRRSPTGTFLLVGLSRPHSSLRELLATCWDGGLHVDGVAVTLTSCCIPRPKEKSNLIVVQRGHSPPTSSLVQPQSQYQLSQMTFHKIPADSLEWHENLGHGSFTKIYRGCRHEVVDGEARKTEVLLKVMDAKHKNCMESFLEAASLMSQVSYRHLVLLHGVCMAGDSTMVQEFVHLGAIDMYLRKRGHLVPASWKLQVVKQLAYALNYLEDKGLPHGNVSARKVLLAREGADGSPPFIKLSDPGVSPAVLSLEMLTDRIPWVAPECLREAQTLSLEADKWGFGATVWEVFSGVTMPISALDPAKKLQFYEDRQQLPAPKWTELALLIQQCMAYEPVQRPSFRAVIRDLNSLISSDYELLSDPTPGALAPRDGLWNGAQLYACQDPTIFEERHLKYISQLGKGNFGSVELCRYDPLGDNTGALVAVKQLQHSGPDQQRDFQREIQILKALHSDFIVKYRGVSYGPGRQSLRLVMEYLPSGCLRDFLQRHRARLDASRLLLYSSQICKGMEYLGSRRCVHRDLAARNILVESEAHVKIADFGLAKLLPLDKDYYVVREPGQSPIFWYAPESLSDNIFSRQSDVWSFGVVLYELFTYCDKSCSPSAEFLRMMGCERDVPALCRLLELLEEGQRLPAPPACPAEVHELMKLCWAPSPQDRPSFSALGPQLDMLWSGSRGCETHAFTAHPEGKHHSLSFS

T1 sequence (O60674 whole entry): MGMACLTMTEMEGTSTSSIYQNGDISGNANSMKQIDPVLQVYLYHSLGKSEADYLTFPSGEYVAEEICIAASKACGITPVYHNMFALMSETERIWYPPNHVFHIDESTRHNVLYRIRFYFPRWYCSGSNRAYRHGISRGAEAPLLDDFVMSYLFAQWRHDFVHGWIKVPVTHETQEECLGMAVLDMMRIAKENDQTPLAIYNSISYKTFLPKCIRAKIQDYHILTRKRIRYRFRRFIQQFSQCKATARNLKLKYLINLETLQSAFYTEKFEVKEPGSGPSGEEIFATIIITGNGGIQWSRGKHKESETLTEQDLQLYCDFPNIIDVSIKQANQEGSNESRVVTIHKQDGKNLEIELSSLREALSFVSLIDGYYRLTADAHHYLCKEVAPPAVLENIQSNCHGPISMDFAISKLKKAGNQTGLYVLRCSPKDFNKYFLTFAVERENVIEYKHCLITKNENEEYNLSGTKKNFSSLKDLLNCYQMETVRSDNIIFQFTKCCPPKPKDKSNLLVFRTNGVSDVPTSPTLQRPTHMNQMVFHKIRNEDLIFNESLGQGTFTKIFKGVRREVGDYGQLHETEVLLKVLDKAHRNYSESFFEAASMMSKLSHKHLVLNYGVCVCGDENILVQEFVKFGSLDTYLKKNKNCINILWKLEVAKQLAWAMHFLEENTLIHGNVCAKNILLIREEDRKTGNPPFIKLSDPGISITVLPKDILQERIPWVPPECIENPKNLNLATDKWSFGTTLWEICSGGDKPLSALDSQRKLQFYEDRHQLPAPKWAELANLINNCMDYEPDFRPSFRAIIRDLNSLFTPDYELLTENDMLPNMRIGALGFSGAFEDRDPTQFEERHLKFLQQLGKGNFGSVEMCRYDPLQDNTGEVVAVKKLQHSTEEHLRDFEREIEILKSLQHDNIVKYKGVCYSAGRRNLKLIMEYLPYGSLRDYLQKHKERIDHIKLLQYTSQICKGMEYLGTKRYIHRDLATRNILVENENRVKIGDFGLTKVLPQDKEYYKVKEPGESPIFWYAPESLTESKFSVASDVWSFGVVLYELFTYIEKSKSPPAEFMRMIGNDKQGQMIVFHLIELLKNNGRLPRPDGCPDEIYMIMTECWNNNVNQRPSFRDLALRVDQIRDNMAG
Chain of Tyrosine-protein kinase JAK2 (Homo sapiens, UniProt O60674, V617F) (O60674 whole entry V617F): as the sequence (O60674 whole entry) above, with V617F counted along it

Row | IC50 [4] | SMILES | IC50 [1] | IC50 [2] | IC50 [3]
1 | – | Cc1cc(Nc2cc(CN3CCOCC3)c3nc(C)c(Cc4ccc(Cl)cc4F)n3n2)n[nH]1 [GANDOTINIB] | 55 nM | 68 nM | 2260 nM
2 | 30000 nM | COc1nn(C)cc1Nc1nccc(-c2c[nH]c3c(NC(=O)[C@@H](C)N4CCN(C)CC4)cccc23)n1 [GOLIDOCITINIB] | – | 14700 nM | –
